Values belong to the molecule of their own block, whether it stands above or below them. Calls of active or inactive are those of the source. The rule behind the calls is not given here.
What was measured:
[1] = biological target: T1, Muscarinic acetylcholine receptor M4 (Homo sapiens) (UniProt P08173); assay: Antagonist activity at human recombinant muscarinic M4 receptor expressed in CHO cells co-transfected with Gqi5 assessed as acetylcholine-induced response in presence of EC80 acetylcholine by calcium mobilization assay relative to untreated control; type: functional, cell-based; set-up: scale not given: the % may be the effect or the level left
T1 sequence (whole entry): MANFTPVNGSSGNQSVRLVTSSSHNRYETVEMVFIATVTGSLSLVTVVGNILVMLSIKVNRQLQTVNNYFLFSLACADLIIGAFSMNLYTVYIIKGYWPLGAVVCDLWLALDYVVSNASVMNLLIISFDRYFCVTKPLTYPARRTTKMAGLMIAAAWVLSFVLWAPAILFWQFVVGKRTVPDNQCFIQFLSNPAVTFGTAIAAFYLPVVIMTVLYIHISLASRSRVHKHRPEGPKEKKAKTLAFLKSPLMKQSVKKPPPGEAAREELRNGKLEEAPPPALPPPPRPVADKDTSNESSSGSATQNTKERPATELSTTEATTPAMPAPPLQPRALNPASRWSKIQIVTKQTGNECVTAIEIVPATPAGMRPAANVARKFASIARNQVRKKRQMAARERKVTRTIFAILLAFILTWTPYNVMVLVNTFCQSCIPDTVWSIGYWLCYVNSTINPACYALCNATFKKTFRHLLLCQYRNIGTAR

[2] = biological target: T2, Muscarinic acetylcholine receptor M4 (Homo sapiens, UniProt P08173); assay: Antagonist activity at human recombinant muscarinic M4 receptor expressed in CHO cells co-transfected with Gqi5 in presence of EC80 acetylcholine by calcium mobilization assay; type: functional, cell-based
T2 sequence (P08173 whole entry): T1 sequence (whole entry)

[3] = biological target: T2, Muscarinic acetylcholine receptor M4; assay: Antagonist activity at human muscarinic M4 receptor
Plasma [4] = assay: Protein binding in human plasma; type: ADME, cell-free
Plasma [5] = assay: Protein binding in rat plasma; type: ADME, cell-free
[6] = Unbound brain-to-plasma concentration ratio in rat dosed as cassette dosing; type: ADME, organism-based
[7] = Brain to plasma permeability coefficient in rat dosed as cassette dosing; type: ADME, organism-based
Brain = assay: Protein binding in rat brain homogenate assessed as unbound fraction; type: ADME, tissue-based
Plasma [8] = assay: Protein binding in rat plasma assessed as unbound fraction; type: ADME, cell-free
Plasma [9] = assay: Protein binding in human plasma assessed as unbound fraction; type: ADME, cell-free
[10] = biological target: T2, Muscarinic acetylcholine receptor M4; assay: Displacement of [3H]NMS from human recombinant muscarinic M4 receptor expressed in CHO cell membranes
[11] = biological target: Muscarinic acetylcholine receptor M5 (Rattus norvegicus) (UniProt P08911); assay: Antagonist activity at rat muscarinic M5 receptor assessed as acetylcholine-induced response by calcium mobilization assay; type: functional; set-up: Activity: scale not given: the % may be the effect or the level left
Chain of Muscarinic acetylcholine receptor M5 (Rattus norvegicus) (P08911 whole entry): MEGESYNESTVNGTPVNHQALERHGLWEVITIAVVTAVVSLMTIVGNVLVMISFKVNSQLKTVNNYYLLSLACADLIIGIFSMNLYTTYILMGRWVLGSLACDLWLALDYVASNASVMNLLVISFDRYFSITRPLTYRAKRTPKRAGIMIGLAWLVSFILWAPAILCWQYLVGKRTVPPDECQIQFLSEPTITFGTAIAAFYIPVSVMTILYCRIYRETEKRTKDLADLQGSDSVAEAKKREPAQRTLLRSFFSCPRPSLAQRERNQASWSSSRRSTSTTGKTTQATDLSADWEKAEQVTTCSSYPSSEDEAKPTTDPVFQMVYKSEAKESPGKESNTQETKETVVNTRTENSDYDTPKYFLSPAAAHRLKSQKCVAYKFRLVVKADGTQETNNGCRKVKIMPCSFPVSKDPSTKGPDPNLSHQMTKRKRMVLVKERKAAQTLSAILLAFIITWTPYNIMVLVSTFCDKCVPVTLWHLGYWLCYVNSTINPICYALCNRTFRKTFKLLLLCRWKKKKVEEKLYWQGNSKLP

[12] = biological target: Muscarinic acetylcholine receptor M4 (Rattus norvegicus) (UniProt P08485); assay: (§1) Antagonist activity at rat muscarinic M4 receptor by calcium mobilization assay; type: functional
[13] = biological target: Muscarinic acetylcholine receptor M3 (Rattus norvegicus) (UniProt P08483); assay: (§2) Antagonist activity at rat muscarinic M3 receptor by calcium mobilization assay; type: functional
Chain of Muscarinic acetylcholine receptor M3 (Rattus norvegicus) (P08483 whole entry, looked up): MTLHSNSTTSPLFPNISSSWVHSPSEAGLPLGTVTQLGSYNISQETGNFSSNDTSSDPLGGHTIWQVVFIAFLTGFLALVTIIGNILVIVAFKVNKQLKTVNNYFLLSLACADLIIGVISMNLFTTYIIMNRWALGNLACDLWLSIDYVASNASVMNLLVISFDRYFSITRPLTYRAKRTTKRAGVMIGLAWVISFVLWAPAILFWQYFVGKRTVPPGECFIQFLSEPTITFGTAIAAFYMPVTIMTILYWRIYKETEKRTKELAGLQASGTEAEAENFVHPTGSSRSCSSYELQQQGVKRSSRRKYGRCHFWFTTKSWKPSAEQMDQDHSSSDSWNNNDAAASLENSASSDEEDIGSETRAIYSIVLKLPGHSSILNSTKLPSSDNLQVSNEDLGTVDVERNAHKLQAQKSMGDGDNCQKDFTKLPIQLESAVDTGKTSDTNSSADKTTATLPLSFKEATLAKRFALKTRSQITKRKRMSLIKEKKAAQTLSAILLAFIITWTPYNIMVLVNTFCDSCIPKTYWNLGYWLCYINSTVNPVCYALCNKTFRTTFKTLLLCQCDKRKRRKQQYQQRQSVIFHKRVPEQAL

[14] = biological target: Muscarinic acetylcholine receptor M2 (Rattus norvegicus) (UniProt P10980); assay: (§3) Antagonist activity at rat muscarinic M2 receptor by calcium mobilization assay; type: functional
Chain of Muscarinic acetylcholine receptor M2 (Rattus norvegicus) (P10980 whole entry): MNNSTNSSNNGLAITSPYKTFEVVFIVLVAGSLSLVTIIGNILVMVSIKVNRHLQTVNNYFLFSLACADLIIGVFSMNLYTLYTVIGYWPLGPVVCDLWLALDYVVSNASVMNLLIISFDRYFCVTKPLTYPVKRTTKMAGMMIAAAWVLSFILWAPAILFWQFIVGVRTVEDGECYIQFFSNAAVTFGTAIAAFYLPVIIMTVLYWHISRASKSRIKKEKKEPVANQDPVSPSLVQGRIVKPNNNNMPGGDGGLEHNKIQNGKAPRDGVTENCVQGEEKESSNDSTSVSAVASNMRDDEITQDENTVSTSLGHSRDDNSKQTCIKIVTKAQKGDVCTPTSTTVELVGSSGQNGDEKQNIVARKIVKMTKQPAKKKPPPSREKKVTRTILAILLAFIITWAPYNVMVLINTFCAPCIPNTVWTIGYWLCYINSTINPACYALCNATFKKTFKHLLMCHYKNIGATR

[15] = biological target: Muscarinic acetylcholine receptor M1 (Rattus norvegicus) (UniProt P08482); assay: (§4) Antagonist activity at rat muscarinic M1 receptor by calcium mobilization assay; type: functional
Chain of Muscarinic acetylcholine receptor M1 (Rattus norvegicus) (P08482 whole entry): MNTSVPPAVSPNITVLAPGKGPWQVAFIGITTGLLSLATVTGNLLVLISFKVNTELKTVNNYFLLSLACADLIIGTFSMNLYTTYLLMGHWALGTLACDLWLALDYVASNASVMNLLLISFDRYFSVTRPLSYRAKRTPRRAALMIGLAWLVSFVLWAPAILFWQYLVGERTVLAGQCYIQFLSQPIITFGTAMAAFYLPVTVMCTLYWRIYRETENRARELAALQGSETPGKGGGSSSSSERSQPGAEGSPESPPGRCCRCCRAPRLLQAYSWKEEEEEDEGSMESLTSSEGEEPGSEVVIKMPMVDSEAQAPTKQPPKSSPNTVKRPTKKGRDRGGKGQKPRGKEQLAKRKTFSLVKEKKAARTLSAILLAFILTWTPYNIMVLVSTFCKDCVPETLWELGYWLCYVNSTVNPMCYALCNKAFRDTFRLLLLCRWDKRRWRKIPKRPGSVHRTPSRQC

[16] = biological target: T3, Muscarinic acetylcholine receptor M3 (Homo sapiens, UniProt P20309); assay: Antagonist activity at human recombinant muscarinic M3 receptor expressed in CHO cells co-transfected with Gqi5 in presence of EC80 acetylcholine by calcium mobilization assay; type: functional, cell-based
Target sequence in this assay (P20309 whole entry): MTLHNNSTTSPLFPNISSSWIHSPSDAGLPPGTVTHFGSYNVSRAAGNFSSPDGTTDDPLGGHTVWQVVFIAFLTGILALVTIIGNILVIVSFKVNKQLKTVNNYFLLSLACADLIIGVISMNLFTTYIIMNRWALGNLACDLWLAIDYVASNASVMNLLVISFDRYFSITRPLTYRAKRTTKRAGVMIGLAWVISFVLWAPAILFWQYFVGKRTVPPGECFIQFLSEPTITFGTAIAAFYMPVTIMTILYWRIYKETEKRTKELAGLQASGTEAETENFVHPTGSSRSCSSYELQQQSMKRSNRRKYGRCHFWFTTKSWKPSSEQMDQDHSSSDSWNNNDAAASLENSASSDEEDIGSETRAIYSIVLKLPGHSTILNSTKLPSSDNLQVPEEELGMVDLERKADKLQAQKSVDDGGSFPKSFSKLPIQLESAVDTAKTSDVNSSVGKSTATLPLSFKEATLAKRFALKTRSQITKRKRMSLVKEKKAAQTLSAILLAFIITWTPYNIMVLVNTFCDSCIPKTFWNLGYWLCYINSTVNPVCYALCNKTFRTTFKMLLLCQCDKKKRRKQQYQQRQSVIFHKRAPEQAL

[17] = biological target: Muscarinic acetylcholine receptor M2 (Homo sapiens) (UniProt P08172); assay: Antagonist activity at human recombinant muscarinic M2 receptor expressed in CHO cells co-transfected with Gqi5 assessed as acetylcholine-induced response in presence of EC80 acetylcholine by calcium mobilization assay relative to untreated control; type: functional, cell-based; set-up: scale not given: the % may be the effect or the level left
Chain of Muscarinic acetylcholine receptor M2 (Homo sapiens) (P08172 whole entry): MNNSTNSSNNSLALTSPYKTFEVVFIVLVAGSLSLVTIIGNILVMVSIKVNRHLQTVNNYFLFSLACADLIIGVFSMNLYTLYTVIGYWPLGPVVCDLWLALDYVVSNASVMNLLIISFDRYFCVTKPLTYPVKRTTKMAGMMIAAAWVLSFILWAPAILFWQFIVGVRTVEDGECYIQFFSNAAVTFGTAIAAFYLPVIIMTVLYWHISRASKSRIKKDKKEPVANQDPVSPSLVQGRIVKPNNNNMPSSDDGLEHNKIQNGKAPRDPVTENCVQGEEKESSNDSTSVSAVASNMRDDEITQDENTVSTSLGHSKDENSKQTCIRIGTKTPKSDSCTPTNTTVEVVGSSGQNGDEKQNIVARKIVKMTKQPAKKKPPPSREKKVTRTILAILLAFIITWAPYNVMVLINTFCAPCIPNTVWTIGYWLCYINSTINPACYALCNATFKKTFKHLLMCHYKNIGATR

[18] = biological target: Muscarinic acetylcholine receptor M2 (Homo sapiens, UniProt P08172); assay: Antagonist activity at human recombinant muscarinic M2 receptor expressed in CHO cells co-transfected with Gqi5 in presence of EC80 acetylcholine by calcium mobilization assay; type: functional, cell-based
Chain of Muscarinic acetylcholine receptor M2 (Homo sapiens, UniProt P08172) (P08172 whole entry): as above

[19] = biological target: Muscarinic acetylcholine receptor M1 (Homo sapiens) (UniProt P11229); assay: Antagonist activity at human recombinant muscarinic M1 receptor expressed in CHO cells co-transfected with Gqi5 assessed as acetylcholine-induced response in presence of EC80 acetylcholine by calcium mobilization assay relative to untreated control; type: functional, cell-based; set-up: scale not given: the % may be the effect or the level left
Chain of Muscarinic acetylcholine receptor M1 (Homo sapiens) (P11229 whole entry): as the sequence (P08482 whole entry) above, with V5A, S254T, S309P, K320R, G337A, V413I counted along it

[20] = biological target: Muscarinic acetylcholine receptor M1 (Homo sapiens, UniProt P11229); assay: Antagonist activity at human recombinant muscarinic M1 receptor expressed in CHO cells co-transfected with Gqi5 in presence of EC80 acetylcholine by calcium mobilization assay; type: functional, cell-based
[21] = biological target: Muscarinic acetylcholine receptor M5 (Homo sapiens, UniProt P08912); assay: Antagonist activity at human recombinant muscarinic M5 receptor expressed in CHO cells co-transfected with Gqi5 in presence of EC80 acetylcholine by calcium mobilization assay; type: functional, cell-based
[22] = biological target: Muscarinic acetylcholine receptor M5 (Homo sapiens) (UniProt P08912); assay: Antagonist activity at human recombinant muscarinic M5 receptor expressed in CHO cells co-transfected with Gqi5 assessed as acetylcholine-induced response in presence of EC80 acetylcholine by calcium mobilization assay relative to untreated control; type: functional, cell-based; set-up: scale not given: the % may be the effect or the level left
[23] = biological target: T3, Muscarinic acetylcholine receptor M3; assay: Antagonist activity at human recombinant muscarinic M3 receptor expressed in CHO cells assessed as acetylcholine-induced response in presence of EC80 acetylcholine by calcium mobilization assay relative to untreated control; set-up: scale not given: the % may be the effect or the level left
Target sequence in this assay (P20309 whole entry, looked up): as the sequence (P20309 whole entry) above

Liver [24] = assay: Drug metabolism in rat liver microsomes assessed as metabolite F formation in presence of NADPH by UV and mass spectrometry; type: ADME, microsome
Liver [25] = assay: Drug metabolism in human liver microsomes assessed as metabolite H formation in presence of NADPH by UV and mass spectrometry; type: ADME, microsome
Liver [26] = assay: Drug metabolism in human liver microsomes assessed as metabolite G formation in presence of NADPH by UV and mass spectrometry; type: ADME, microsome
Liver [27] = assay: Drug metabolism in human liver microsomes assessed as metabolite E formation in presence of NADPH by UV and mass spectrometry; type: ADME, microsome
Liver [28] = assay: Drug metabolism in human liver microsomes assessed as metabolite D formation in presence of NADPH by UV and mass spectrometry; type: ADME, microsome
Liver [29] = assay: Drug metabolism in human liver microsomes assessed as metabolite C formation in presence of NADPH by UV and mass spectrometry; type: ADME, microsome
Liver [30] = assay: Drug metabolism in human liver microsomes assessed as metabolite A formation in presence of NADPH by UV and mass spectrometry; type: ADME, microsome
Liver [31] = assay: Drug metabolism in human liver microsomes assessed as metabolite B formation in presence of NADPH by UV and mass spectrometry; type: ADME, microsome
Liver [32] = assay: Drug metabolism in human liver microsomes in absence of NADPH by UV and mass spectrometry; type: ADME, microsome
Liver [33] = assay: Drug metabolism in rat liver microsomes in absence of NADPH by UV and mass spectrometry; type: ADME, microsome
Liver [34] = assay: Drug metabolism in human liver microsomes assessed as metabolite F formation in presence of NADPH by UV and mass spectrometry; type: ADME, microsome
[35] = biological target: Muscarinic acetylcholine receptor M5 (Rattus norvegicus, UniProt P08911); assay: Antagonist activity at rat muscarinic M5 receptor by calcium mobilization assay; type: functional
[36] = biological target: Muscarinic acetylcholine receptor M4 (Rattus norvegicus) (UniProt P08485); assay: Antagonist activity at rat muscarinic M4 receptor assessed as acetylcholine-induced response by calcium mobilization assay; type: functional; set-up: scale not given: the % may be the effect or the level left
[37] = biological target: Muscarinic acetylcholine receptor M3 (Rattus norvegicus) (UniProt P08483); assay: Antagonist activity at rat muscarinic M3 receptor assessed as acetylcholine-induced response by calcium mobilization assay; type: functional; set-up: scale not given: the % may be the effect or the level left
[38] = biological target: Muscarinic acetylcholine receptor M4 (Rattus norvegicus, UniProt P08485); assay: as §1; type: functional
[39] = biological target: Muscarinic acetylcholine receptor M3 (Rattus norvegicus, UniProt P08483); assay: as §2; type: functional
[40] = biological target: Muscarinic acetylcholine receptor M2 (Rattus norvegicus, UniProt P10980); assay: as §3; type: functional
[41] = biological target: Muscarinic acetylcholine receptor M2 (Rattus norvegicus) (UniProt P10980); assay: Antagonist activity at rat muscarinic M2 receptor assessed as acetylcholine-induced response by calcium mobilization assay; type: functional; set-up: scale not given: the % may be the effect or the level left
[42] = biological target: Muscarinic acetylcholine receptor M1 (Rattus norvegicus) (UniProt P08482); assay: Antagonist activity at rat muscarinic M1 receptor assessed as acetylcholine-induced response by calcium mobilization assay; type: functional; set-up: scale not given: the % may be the effect or the level left
[43] = biological target: Muscarinic acetylcholine receptor M1 (Rattus norvegicus, UniProt P08482); assay: as §4; type: functional
[44] = biological target: Muscarinic acetylcholine receptor M2 and M4 (Homo sapiens) (UniProt P08173+P08172); assay: Selectivity index, ratio of IC50 for human recombinant muscarinic M2 receptor to IC50 for human recombinant muscarinic M4 receptor
Homo sapiens [45] = species: Homo sapiens; assay: Selectivity index, ratio of IC50 for human recombinant muscarinic M3 receptor to IC50 for human recombinant muscarinic M4 receptor
Homo sapiens [46] = species: Homo sapiens; assay: Selectivity index, ratio of IC50 for human recombinant muscarinic M5 receptor to IC50 for human recombinant muscarinic M4 receptor
Homo sapiens [47] = species: Homo sapiens; assay: Selectivity index, ratio of IC50 for human recombinant muscarinic M1 receptor to IC50 for human recombinant muscarinic M4 receptor

Activity [1]: 9.2%
IC50 ([2]; read-out: IC50): 0.53 µM
IC50 [3]: 1 µM
SMILES: CC1CCCCN1c1ccc(N2CCN(S(=O)(=O)c3ccccc3Cl)CC2)nn1 (racemic)

PPB (Plasma [4]): Active
PPB (Plasma [5]): Active
Activity [1]: 9%
IC50 ([2]; read-out: IC50): 0.2 µM
SMILES: C[C@H]1CCCCN1c1ccc(N2CCN(S(=O)(=O)c3ccc4c(c3)OCO4)CC2)nn1

PPB (Plasma [4]): Active
PPB (Plasma [5]): Active
Activity [1]: 22%
IC50 ([2]; read-out: IC50): 0.76 µM
IC50 ([2]; read-out: pIC50 (converted)): 0.708 µM
SMILES: C[C@H]1CCCCN1c1ccc(N2CCN(S(=O)(=O)c3cccc(Cl)c3)CC2)nn1

K(p,uu,brain) [6]: 1.1
Kp [7]: 2.1
Fu (Brain): 0.04
Fu (Plasma [8]): 0.07
Fu (Plasma [9]): 0.08
Ki [10]: 0.00778 µM
inhibition [11]: Active
inhibition [12]: Active
inhibition [13]: Active
inhibition [14]: Active
inhibition [15]: Active
IC50 [16]: 0.782 µM
Activity [17]: 17%
IC50 [18]: 0.352 µM
Activity [19]: 11%
IC50 [20]: 0.288 µM
Activity [1]: 12%
IC50 ([2]; read-out: IC50): 0.12 µM
IC50 ([2]; read-out: pIC50 (converted)): 0.11 µM
IC50 [21]: 1.03 µM
Activity [22]: 43%
Activity [23]: 55%
SMILES: Cc1noc(C)c1S(=O)(=O)N1CCN(c2ccc(N3CCCC(C)(C)C3)nn2)CC1

PPB (Plasma [4]): Active
PPB (Plasma [5]): Active
Activity [1]: 7%
IC50 ([2]; read-out: IC50): 1.17 µM
IC50 ([2]; read-out: pIC50 (converted)): 1.12 µM
SMILES: C[C@H]1CCCCN1c1ccc(N2CCN(S(=O)(=O)c3ccc4ncccc4c3)CC2)nn1

Drug metabolism (Liver [24]): Metabolite_Detected
Drug metabolism (Liver [25]): Metabolite_Detected
Drug metabolism (Liver [26]): Metabolite_Detected
Drug metabolism (Liver [27]): Metabolite_Detected
Drug metabolism (Liver [28]): Metabolite_Detected
Drug metabolism (Liver [29]): Metabolite_Detected
Drug metabolism (Liver [30]): Metabolite_Detected
Drug metabolism (Liver [31]): Metabolite_Detected
Drug metabolism (Liver [32]): Metabolite_Notdetected
Drug metabolism (Liver [33]): Metabolite_Notdetected
Drug metabolism (Liver [34]): Metabolite_Detected
PPB (Plasma [4]): Active
PPB (Plasma [5]): Active
Activity [11]: 37%
IC50 [35]: > 10 µM
Activity [36]: 4.8%
Activity [37]: 40%
IC50 [38]: 1 µM
IC50 [39]: > 10 µM
IC50 [40]: 5.9 µM
Activity [41]: 7.1%
Activity [42]: 2.6%
IC50 [43]: 1.4 µM
Ratio IC50 [44]: 2.7 to 16
Ratio IC50 (Homo sapiens [45]): 2.7 to 16
Ratio IC50 (Homo sapiens [46]): 2.7 to 16
Ratio IC50 (Homo sapiens [47]): 2.7 to 16
IC50 [16]: 7 µM
Activity [17]: 2.9%
IC50 [18]: 1.2 µM
Activity [19]: 2.8%
IC50 [20]: 1.3 µM
Activity [1]: 4%
IC50 ([2]; read-out: IC50): 0.44 µM
IC50 ([2]; read-out: pIC50 (converted)): 0.427 µM
IC50 [21]: 6.5 µM
Activity [22]: 3.1%
Activity [23]: 4.3%
SMILES: C[C@H]1CCCCN1c1ccc(N2CCN(S(=O)(=O)c3ccccc3Cl)CC2)nn1
